Assay results taken from US20110123483A1, “HMGB1 FOR CANCER TREATMENT” (DEUTSCHES KREBSFORSCHUNGSZENTRUM, priority 2009, published 2011).

Assays:
Assay type in all cases: cell-based, human
[1] = test system: U251MG glioblastoma cells; test: Cytotoxicity assay, cell survival by crystal violet staining
Procedure: 20,000 U251MG glioblastoma cells or human astrocytic cells (ScienCell) were plated into 96-well plates. After 24 h cells were treated with rhHMGB1 (Sigma Aldrich) or rat recombinant HMGB1 (generously provided by Angelika Bierhaus, Heidelberg, Germany), and TRAIL (for 24 h) or Temozolomide (for 72 h) alone or in combination, respectively. […] Cell proliferation was assessed by seeding 50,000 U251 MG cells in 6 cm culture plates and treatment with rhHMGB1, followed by counting the cells in a Neubauer chamber at day 0, 2, 4 and 5.

U251 MG cells [2] = test: ROS measurement by DCF fluorescence and FACS analysis; conditions: co-treatment with rhHMGB1 (FIG. 3A)
Procedure: For measurement of reactive oxygen species (ROS) and mitochondrial membrane potential (MMP) 1.5×10^6 U251 MG cells were seeded in 6 cm plates, treated with 40 nM rhHMGB1 for 24 h and incubated with the fluorescent DiOC6 (3,3′-dihexyloxacarbocyanine iodide, 40 nmol/ll, Sigma Chemical Co., St. Louis, Mo.) or with the fluorescent H2DCF-DA (dichlorodihydrofluorescein diacetate, 10 μM, Invitrogen) for 1 h at 37° C., respectively. The cells were trypsinized and centrifuged at 2,000 rpm for 5 min at 4° C. The supernatant was discarded and the pellet was washed 2× with sterile Dulbecco's PBS containing 0.1% fetal calf serum on ice and again centrifuged at 2,000 rpm for 5 min at 4° C. The pellet was resuspended in 500 μl sterile Dulbecco's PBS on ice. Oxidation of H2DCF to DCF by ROS and DiOC6 accumulation in mitochondria were measured immediately at FL-1 by flow cytometry using a FACScalibur (Beckton Dickinson, Heidelberg, Germany). Cell cycle was determined by measurement of priopidiumiodide (PI)-uptake of the cells according to standard procedures. Briefly, the cells were harvested and washed twice in sterile Dulbecco's PBS on ice, spun down at 2,000 rpm for 5 min at 4° C. and fixed with 70% ethanol for 30 min at 4° C. Contaminating RNA was eliminated by treatment with 100 μg/ml of RNase A, then 50 μg/ml PI was added and DNA content was measured immediately at FI-2. […]

JNK1/2 = test: Western blot analysis of JNK1/2 phosphorylation; conditions: NAC, rhHMGB1 40 nM (FIG. 3E)
Procedure: The U251 MG tumor cells were lysed in lysis buffer containing 20 mmol/L Tris-HCl (pH 7.4), 137 mmol/L NaCl, 10% (v/v) glycerine, 1% Triton X-100, 2 mmol/L EDTA, 100 mmol/L phenylmethylsulfonyl fluoride, and protease inhibitors (Complete mini; Roche Molecular Biochemicals). For the detection of phosphoprotein levels, 10 mmol/L NaPPi, 50 mmol/L NaF, and 20 mmol/L NaVO4 were added to the lysis buffer. After 15 min incubation on ice, the lysates were centrifuged at 14,000×g for 10 min. The total protein concentration of the lysates was measured using the Bradford assay (Bio-Rad). Soluble protein (25-100 μg per lane) was separated on 10% to 15% polyacrylamide gels and blotted onto nitrocellulose by standard procedures. […]

pseudo rho zero cells = test: Survival of pseudo rho zero cells by crystal violet analysis; conditions: TRAIL 100 ng/ml, 24 h (FIG. 5)
Procedure: U251 glioblastoma cells and non-immortalized human astrocytic cells (ScienCell, USA) were maintained in DMEM (Life Technologies) containing 10% FCS, 4.5 g/L glucose, glutamine, 110 mg/L sodium pyruvate, and 1% penicillin-streptomycin (Life Technologies) and in astrocyte medium (ScienCell) containing 2% FBS (fetal bovine serum) and 1% penicillin-streptomycin at 37° C. and 5% CO2. For the generation of pseudo rho zero cells (0.0), U251 MG cells were treated with low dose (250 ng/ml) ethidiumbromide for 3 months. The cells were supplemented with DMEM (10% FCS, 1% P/S) containing 50 μg/ml L-pyruvate and 5 mg/ml uridine (King and Attardi, 1989).
20,000 U251MG glioblastoma cells or human astrocytic cells (ScienCell) were plated into 96-well plates. After 24 h cells were treated with rhHMGB1 (Sigma Aldrich) or rat recombinant HMGB1 (generously provided by Angelika Bierhaus, Heidelberg, Germany), and TRAIL (for 24 h) or Temozolomide (for 72 h) alone or in combination, respectively. Cell survival was measured by crystal violet staining as described previously (Gdynia et al., 2007). Cell proliferation was assessed by seeding 50,000 U251 MG cells in 6 cm culture plates and treatment with rhHMGB1, followed by counting the cells in a Neubauer chamber at day 0, 2, 4 and 5.

U251 MG cells [3] = test: Subcellular fractionation and Western blot: cytochrome c release, caspase 3 cleavage
Procedure: The U251 MG tumor cells were lysed in lysis buffer containing 20 mmol/L Tris-HCl (pH 7.4), 137 mmol/L NaCl, 10% (v/v) glycerine, 1% Triton X-100, 2 mmol/L EDTA, 100 mmol/L phenylmethylsulfonyl fluoride, and protease inhibitors (Complete mini; Roche Molecular Biochemicals). For the detection of phosphoprotein levels, 10 mmol/L NaPPi, 50 mmol/L NaF, and 20 mmol/L NaVO4 were added to the lysis buffer. After 15 min incubation on ice, the lysates were centrifuged at 14,000×g for 10 min. The total protein concentration of the lysates was measured using the Bradford assay (Bio-Rad). Soluble protein (25-100 μg per lane) was separated on 10% to 15% polyacrylamide gels and blotted onto nitrocellulose by standard procedures. The membranes were washed, incubated with primary antibody as indicated: mouse anti-human caspase-3 (1:500, Imgenex, San Diego, Calif.); polyclonal rabbit anti-human phosphorylated p44/42 mitogen-activated protein kinase and polyclonal rabbit anti-human phosphorylated stress-activated protein kinase/JNK (1:1,000, Cell Signaling Technology, Inc.); polyclonal anti-rabbit JNK 54/46 (1:1,000, Cell Signaling Technology, Inc.); polyclonal rabbit anti-human IkBalpha (1:500, Santa Cruz Biotechnology, Inc.); mouse monoclonal anti-human BNIP3 (1:10,000, R&D Systems, Inc.); mouse monoclonal anti-human phosphorylated-histone H2A.X (Upstate, Inc.); mouse monoclonal anti-human cytochrome c (1:100, BD Biosciences Pharmingen GmbH, Heidelberg, Germany); mouse anti-human cytochrome c oxidase complex IV (1:100, Molecular Probes, Invitrogen, Karlsruhe, Germany); polyclonal rabbit antimalondialdehyde (1:250, Calbiochem, Merck, Darmstadt, Germany) and mouse monoclonal antibodies to β-tubulin or β-actin (1:3,000, Sigma Chemical Co., St. Louis, Mo.), washed, and incubated with the appropriate secondary antibody (1:3,000; horseradish peroxidase-conjugated, Bio-Rad). Bound antibodies were visualized using an enhanced chemiluminescence detection system (GE-Healthcare, Uppsala, Sweden).
Enrichment of mitochondrial fractions was performed using the ApoAlert Cell Fractionation Kit (Clontech, Mountain View, Calif.) as described previously (Gdynia et al., 2008). Briefly, after centrifugation and several washing steps, the cell pellet was resuspended in ice-cold 1× Fractionation Buffer Mix containing protease inhibitors (Complete mini; Roche Molecular Biochemicals, Indianapolis, Ind.) and 1 mM 1,4-Dithio-DL-threitol solution (DTT). After 10 min incubation on ice, cells were homogenized with a dounce tissue grinder. Efficiency of homogenization was controlled by microscopy. The homogenate was centrifuged at 700×g for 10 min at 4° C. and the resulting supernatant at 10,000×g for 25 min at 4° C. […]

`O=c1ccn([C@@H]2O[C@H](CO)[C@@H](O)[C@H]2O)c(=O)[nH]1` [uridine, reference compound] was tested, and the “effect on rhHMGB1-induced cell death” value ([1]; uridine 5 mg/ml in culture medium, 48 h (FIG. 3F)) was “substantially inhibited”.

For `CC(=O)N[C@@H](CS)C(=O)O` [NAC, reference compound], the “effect on rhHMGB1-induced cell death” value ([1]; NAC 1 mM, 48 h co-treatment with rhHMGB1 (FIG. 3B)) was “substantially inhibited”, the “effect on rhHMGB1-induced ROS generation” value (U251 MG cells [2]) was “partially prevented” and the “effect on JNK activation after rhHMGB1 treatment” value (JNK1/2) was “prevented the activation of JNK”.

B1: TRAIL: death ligand TRAIL, positive control for cytotoxicity (protein, UniProt P50591 1-281, looked up)
Tumor necrosis factor ligand …: MAMMEVQGGPSLGQTCVLIVIFTVLLQSLCVAVTYVYFTNELKQMQDKYSKSGIACFLKEDDSYWDPNDEESMNSPCWQVKWQLRQLVRKMILRTSEETISTVQEKQQNISPLVRERGPQRVAAHITGTRGRSNTLSSPNSKNEKALGRKINSWESSRSGHSFLSNLHLRNGELVIHEKGFYYIYSQTYFRFQEEIKENTKNDKQMVQYIYKYTSYPDPILLMKSARNSCWSKDAEYGLYSIYQGGIFELKENDRIFVSVTNEHLIDMDHEASFFGAFLVG
B1 was tested, and the “apoptotic signalling in pseudo rho zero cells” value (pseudo rho zero cells) was “still intact”, the “release of cytochrome c into the cytosolic fraction” value (U251 MG cells [3]; TRAIL 200 ng/ml, 3 h (FIG. 6)) was “detected” and the “cleavage of caspase 3” value (U251 MG cells [3]; TRAIL treatment (FIG. 6)) was “observed”.
